Measurements as given in paper PMC4846832, “Discovery of new MD2 inhibitor from chalcone derivatives with anti-inflammatory effects in LPS-induced acute lung injury” (Scientific Reports, 2016).

Target: T1, MD2 (myeloid differentiation protein 2) (Homo sapiens, UniProt Q9Y6Y9)
T1 construct: gene LY96; recombinant human MD2 (rhMD2)
T1 sequence (Q9Y6Y9 19-160): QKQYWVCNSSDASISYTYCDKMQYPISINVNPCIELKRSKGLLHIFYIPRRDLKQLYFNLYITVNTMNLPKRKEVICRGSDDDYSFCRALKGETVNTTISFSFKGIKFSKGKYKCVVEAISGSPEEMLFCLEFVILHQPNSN
Experiment: SPR (ProteOn XPR36); supported by bis-ANS displacement and biotin-LPS competitive ELISA
Assay type: binding

Kd: 189 µM
SMILES: COc1ccc(C(=O)/C=C/c2cc(OC)c(OC)c(OC)c2)cc1OC [compound 20]
